Laboratory results from patent US7855228B2, “Antibiotics targeting MreB” (The Board of Trustees of the Leland Stamford Junior …, priority 2005, dated 2010).
In brackets after ≈: the same amount, converted by molar mass. Like-named read-outs stand apart in the source and are kept apart here.

Columns and labels:
Caulobacter = Caulobacter morphology (DIC images); assay type: cell-based, Caulobacter crescentus; settings: drugs that affect eukaryotic actin
Text: Consistent with previous observations in E. coli (Iwai et al., 2002), A22 caused a dose-dependent alteration of Caulobacter morphology, transforming normal, crescent-shaped cells into rounded, lemon-shaped cells. The progression of cell shape deformation by A22 treatment was qualitatively similar to that caused by mreB depletion, though the A22 effect was more rapid (FIGS. […]). […] For example, A22 could disrupt the localization of new cell wall synthesis but have no effect on the existing cell wall, such that without additional growth and wall synthesis A22's effects cannot be perceived. A dependence on cell growth could also explain why A22's effect on morphology takes several hours to manifest.
Microscopy and Timelapse Imaging. All experiments other than the A22 flow-cell analysis were performed by mounting the samples on 1% agarose pads as described, with the appropriate concentration of A22 added to the agarose. The rates of origin-distal locus segregation were determined by inducing PxyI:lacI:cfp expression with 0.03% xylose for 75 min, isolating swarmer cells, and growing the swarmer cells in M2G liquid medium for 50 min. After 50 min, 10 μg/ml of A22 was added to these liquid cultures, they were mounted onto 1% M2G agarose pads containing 10 μg/ml A22, and a phase and CFP fluorescence image was captured every 2 min for 60 min. The images were analyzed by previously described software to determine the average position and rate of movement of the observed foci.

[1] = tested on: E. coli K-12 strain SH3210; experiment: Anucleate cell blue assay; assay type: cell-based
Description: Anucleate cell blue assay. The anucleate cell blue assay was carried out as reported previously. Briefly, E. coli K-12 strain SH3210 (ΔtrpE5 his λ pXX747) was grown in a P medium containing 1% Polypepton and 0.5% NaCl (pH 7). Paper disks (φ 8 mm) each soaked with 20 μl of a sample solution were placed on P medium agar plates (1.5% agar) containing 10^4 cells/ml of SH3210 and 40 μg/ml of 5-bromo-4-chloro-3-indolyl β-D-galactoside. The plates were incubated at 42° C. for 24 h, and the development of a blue color and the growth inhibitory zone around the paper disks were evaluated.
Since 1 had originally been found through screening by an anucleate cell blue assay, the effect of each compound was first examined by this assay.

P. putida NBRC14164 = experiment: Determination of minimum inhibitory concentration (MIC); assay type: cell-based, Pseudomonas putida; settings: Pseudomonas putida, read-out: MIC P. putida
Description: (§1) Determination of minimum inhibitory concentration (MIC). MICs were also determined on Mueller Hinton agar plates (0.2% beef extract, 1.75% acid digest of casein, 0.15% soluble starch, 1.5% agar, pH 7.3).
(§2) Determination of MIC Minimal inhibitory concentrations (MICs) were determined using a standard 2-fold serial dilution format on L agar plates. Ten microliters of stationary culture diluted in 0.85% NaCl to 10^6 cells/ml were spotted on per plate. […] MICs were also determined on Mueller Hinton agar plates (0.2% beef extract, 1.75% acid digest of casein, 0.15% soluble starch, 1.5% agar, pH 7.3).

S. typhimurium NBRC13245 = experiment: as above; assay type: cell-based, Salmonella typhimurium; settings: Salmonella enterica, read-out: MIC S. typhimurium
Description: as §1, §2

B. subtilis 168 = experiment: as above; assay type: cell-based, Bacillus subtilis; settings: read-out: MIC B. subtilis
Description: as §1, §2

E. coli MG1655 [2] = experiment: Microscopic observation of cell shape; assay type: cell-based; settings: for Effect on E. coli cell morphology (in words): 3×MIC or 300 μg/ml, 16 hrs
Description: Microscopic observation. E. coli K-12 strain MG1655 (F^− λ^−) was grown in Lennox broth containing 1% Polypepton, 0.5% yeast extract, 0.5% NaCl, and 0.1% glucose (pH 7.2). Cells spread on a slide glass were treated with methanol for 5 min and covered with poly-L-lysine. The fixed cells were observed by the differential interference contrast system through an Axioskop 2 microscope (Carl Zeiss Co., Ltd., Oberkochen, Germany). To observe the anucleate cells, cells were stained with a 4′,6-diamidino-2-phenylindole (DAPI) solution (5 μg/ml in saline) and then observed by the fluorescence phase-contrast combined method.
The effect of each compound on E. coli cell morphology was next examined.

[3] = tested on: S. aureus subsp. aureus NBRC15035; experiment: Determination of minimum inhibitory concentration (MIC); assay type: cell-based, Staphylococcus aureus; settings: Staphylococcus aureus, read-out: MIC S. aureus
Description: as §1, §2

E. coli MG1655 [4] = experiment: as above; assay type: cell-based; settings: Escherichia coli, read-out: MIC E. coli
Description: as §1, §2

HoIB-GFP = HoIB-GFP (replisome) localization; assay type: cell-based, Caulobacter crescentus; settings: 1 hr treatment
Description: To assess the ability of these cells to assemble a replisome at the replication origins, A22 was administered to cells expressing a fusion of GFP to the HoIB subunit of DNA polymerase.

[5] = NBRC14164, Example 2, methods as in Example 1
[6] = Example 2, methods as in Example 1
[7] = Bacillus subtilis, 168, Example 2, methods as in Example 1
[8] = Bacillus subtilis, 168, Table 1, B. subtilis 168
[9] = E. coli MG1655 treated at 300 μg/ml (**), 30° C., 16 h
[10] = NBRC15035, Example 2, methods as in Example 1
[11] = MG1655, Example 2, methods as in Example 1
[12] = MG1655, Table 1, E. coli MG1655

Molecule | Caulobacter growth rate or morphology (Caulobacter) | Growth inhibitory zone and blue zone in the anucleate cell blue assay (in words) [1] | MIC (P. putida NBRC14164; [5]) [µg/mL] | MIC (P. putida NBRC14164; NBRC14164, Table 1, NBRC14164) [µg/mL] | MIC (S. typhimurium NBRC13245; [6]) [µg/mL] | MIC (S. typhimurium NBRC13245; Table 1, NBRC13245) [µg/mL] | MIC (B. subtilis 168; [7]) [µg/mL] | MIC (B. subtilis 168; [8]) [µg/mL] | Shape (E. coli MG1655 [2]; [9]) | Shape (E. coli MG1655 [2]; [6]) | MIC [3, 10] [µg/mL] | MIC ([3]; NBRC15035, Table 1, NBRC15035) [µg/mL] | MIC (E. coli MG1655 [4]; [11]) [µg/mL] | MIC (E. coli MG1655 [4]; [12]) [µg/mL] | HoIB-GFP localization (HoIB-GFP) | Effect on E. coli cell morphology (in words) (E. coli MG1655 [2]; 30° C.) | Shape (E. coli MG1655 [2]; E. coli MG1655 treated at 3×MIC (*), 30° C., 16 h)
latrunculin | failed to perturb growth rate or morphology |  |  |  |  |  |  |  |  |  |  |  |  |  |  |  | 
C/C1=C\[C@H](C)C[C@H](C)OC(=O)C[C@H](c2ccc(O)cc2)NC(=O)[C@@H](Cc2c(Br)[nH]c3ccccc23)N(C)C(=O)[C@H](C)NC(=O)[C@@H](C)C1 [jasplakinolide] | failed to perturb growth rate or morphology |  |  |  |  |  |  |  |  |  |  |  |  |  |  |  | 
S=C=NCc1ccccc1 [Compound 8, benzylisothiocyanate, reference compound] |  | a growth inhibitory zone, but no blue zone developed | > 100 | > 100 | 100 (≈ 670 µM) | 100 (≈ 670 µM) | 25 (≈ 168 µM) | 25 (≈ 168 µM) | Rod** | Rod | 12.5 (≈ 83.8 µM) | 12.5 (≈ 83.8 µM) | 50 (≈ 335 µM) | 50 (≈ 335 µM) |  |  | 
C=C1[C@@H](C)[C@H]2[C@H](Cc3ccccc3)NC(=O)[C@]23[C@H](OC(C)=O)/C=C/[C@@](C)(O)C(=O)[C@@H](C)C/C=C/[C@H]3[C@@H]1O [cytochalasin D] | failed to perturb growth rate or morphology |  |  |  |  |  |  |  |  |  |  |  |  |  |  |  | 
CO[C@@H]1[C@@H](OC(N)=O)[C@@H](O)[C@H](Oc2ccc3c(O)c(NC(=O)c4ccc(O)c(CC=C(C)C)c4)c(=O)oc3c2C)OC1(C)C [novobiocin] |  |  |  |  |  |  |  |  |  |  |  |  |  |  | rapid delocalization of HoIB-GFP |  | 
N=C(N)SCc1ccc(Cl)cc1 [Compound 2, S-(4-chlorobenzyl)isothiourea] |  | deep blue zone around a growth inhibitory zone almost comparable to those of 1 | > 100 | > 100 | 3.13 (≈ 15.6 µM) | 3.13 (≈ 15.6 µM) | > 100 | > 100 |  | Sphere | > 100 | > 100 | 3.13 (≈ 15.6 µM) | 3.13 (≈ 15.6 µM) |  | induced a spherical cell shape | Sphere*
CCCCCCCSC(=N)N [Compound 5, S-heptylisothiourea] |  | a growth inhibitory zone as well as a blue zone | 200 (≈ 1150 µM) | > 100 | > 200 | > 100 | > 200 | > 100 | Rod** | Rod | > 200 | > 100 | 200 (≈ 1150 µM) | > 100 |  | somewhat elongated cells, but not spherical cells | 
